Measurements reported in patent publication US9193719B2, “1,2,4-triazol-5-ones and analogs exhibiting anti-cancer and anti-proliferative activities” (Deciphera Pharmaceuticals, LLC, priority 2013, dated 2015).

What was measured:
[1] = tested on: M-NFS-60 cells; assay: M-NFS-60 cell proliferation assay (resazurin); assay type: cell-based; conditions: 67 h incubation
Method in brief: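 Cells kept in medium containing 20 ng/mL mouse recombinant M-CSF. Fluorescence was read at ex 540/em 600 nm, and IC50 was fitted from percent inhibition across a range of inhibitor concentrations.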

[2] = tested on: MDA-MB-231-luc-D3H2LN human breast carcinoma xenograft; assay: MDA-MB-231 xenograft study; assay type: in vivo, mouse; conditions: orally dosed at 15 mpk twice daily
Experimental: MDA-MB-231 Xenograft Study
To evaluate the in vivo anti-cancer activity compounds of Formula I, a MDA-MB-231-luc-D3H2LN human breast carcinoma xenograft was employed. Briefly, MDA-MB-231-luc-D3H2LN cells were obtained from Xenogen and expanded in Minimal Essential Media (MEM) with EBSS which was modified with 1% L-glutamine and supplemented with 10% FBS, 1% PSG, 1% non-essential amino acids, and 1% sodium pyruvate. The growth environment was maintained in an incubator with a 5% CO2 atmosphere at 37° C. Cells were harvested and re-suspended using 50% serum-free media and 50% Matrigel® to generate a stock concentration of 5×10^6 cells/mL.
Six to 7 week old female C.B-17/IcrHsd-PrkdcscidLystbg mice were injected with 200 μL of cell suspension subcutaneously, just below the right axilla. All procedures carried out in this experiment were conducted in compliance with all the laws, regulations and guidelines of the National Institutes of Health (NIH). Treatment began when the mean tumor burden is approximately 150 mg. All mice were dosed with test compound by oral gavage. Body weights and tumor measurements were recorded three times weekly. […] Images were analyzed using Living Image (Xenogen, Alameda, Calif.) software. […]

[3] = target: T1, unphosphorylated c-KIT kinase (uKIT, Seq. ID no. 2) (Homo sapiens, UniProt P10721); assay: uKit kinase enzymatic assay (pyruvate kinase/lactate dehydrogenase coupled); assay type: biochemical; conditions: ATP 2000 μM, rate 3 to 4 h
T1 construct: uKit with N-terminal GST fusion used for screening
Method in brief: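 Coupled pyruvate kinase/lactate dehydrogenase readout of ADP, following NADH oxidation at A340 continuously for 4 h at 30 °C. Mix: 12 nM unphosphorylated KIT, 1 mg/mL polyE4Y, 2000 μM ATP, 10 mM MgCl2, 90 mM Tris pH 7.5, 0.2% octyl-glucoside, 1% DMSO. IC50 from % inhibition of rates at 3–4 h.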

T1 sequence (P10721 with tags, fused parts or gaps): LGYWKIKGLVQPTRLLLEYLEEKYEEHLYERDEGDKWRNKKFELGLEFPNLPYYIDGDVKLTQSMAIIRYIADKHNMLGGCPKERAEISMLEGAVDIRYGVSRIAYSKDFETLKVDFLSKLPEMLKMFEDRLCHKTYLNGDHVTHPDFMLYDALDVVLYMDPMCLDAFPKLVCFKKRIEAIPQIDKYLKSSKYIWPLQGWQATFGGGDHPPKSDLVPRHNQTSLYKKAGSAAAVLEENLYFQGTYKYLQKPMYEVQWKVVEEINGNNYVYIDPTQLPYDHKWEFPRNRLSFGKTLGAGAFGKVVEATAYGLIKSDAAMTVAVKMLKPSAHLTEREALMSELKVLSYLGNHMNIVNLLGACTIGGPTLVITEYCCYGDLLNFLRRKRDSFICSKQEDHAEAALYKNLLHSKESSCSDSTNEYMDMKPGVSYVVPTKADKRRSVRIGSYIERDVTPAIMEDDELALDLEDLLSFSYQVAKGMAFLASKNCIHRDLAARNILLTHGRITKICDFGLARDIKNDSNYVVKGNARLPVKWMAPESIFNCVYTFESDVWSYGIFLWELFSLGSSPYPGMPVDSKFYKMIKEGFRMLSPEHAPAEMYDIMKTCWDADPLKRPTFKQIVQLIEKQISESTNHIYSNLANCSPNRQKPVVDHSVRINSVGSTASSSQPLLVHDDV

Row | Structure (SMILES) | IC50 [1] [nM] | tumor growth inhibition [2] [%] | IC50 [3] [nM]
1 | Cc1nc(-n2nc(C(C)(C)C)[nH]c2=O)ccc1Oc1ccnc(-c2cnn(C)c2)c1 [Example 7, 3-(tert-butyl)-1-(6-methyl-5-((2-(1-methyl-1H-pyrazol-4-yl)pyridin-4-yl)oxy)pyridin-2-yl)-1H-1,2,4-triazol-5(4H)-one] | 10 to 100 | 39 | 100 to 1000
2 | Cc1nc(-n2cc(C(C)(C)C)[nH]c2=O)ccc1Oc1ccnc(-c2cnn(C)c2)c1 [Example 48, 4-(tert-butyl)-1-(6-methyl-5-((2-(1-methyl-1H-pyrazol-4-yl)pyridin-4-yl)oxy)pyridin-2-yl)-1H-imidazol-2(3H)-one] | 10 to 100 |  | > 1000
3 | Cc1nc(-n2nc(C(C)(C)C)oc2=O)ccc1Oc1ccnc(-c2cnn(C)c2)c1 [Example 49, 5-(tert-butyl)-3-(6-methyl-5-((2-(1-methyl-1H-pyrazol-4-yl)pyridin-4-yl)oxy)pyridin-2-yl)-1,3,4-oxadiazol-2(3H)-one] | 10 to 100 |  | 100 to 1000
